Results reported in patent US20230286960A1, “ALLOSTERIC CHROMENONE INHIBITORS OF PHOSPHOINOSITIDE 3-KINASE (PI3K) FOR THE TREATMENT OF DISEASE” (Petra Pharma Corporation, priority 2020, published 2023).

Tests used:
[1] = target: human full length PIK3CA wild-type (p110α/p85α) (Homo sapiens (Human), UniProt P42336); experiment: PI3K-alpha kinase (PIK3CA) activity, wild-type, Transcreener ADP2 FI assay; conditions: PI3K-α (PIK3CA) biochemical
Description: (§1) PI3K-Alpha Kinase (PIK3CA) Activity, Wild-Type and H1047R Mutant and Determining IC50 Values for Inhibitors
(§2) Recombinant, catalytically active human full length PIK3KA Wild-type and H1047R mutant were purchased as 1:1 complex of N-terminal 6× his tagged p110 ? (catalytic) and untagged p85 ? (regulatory subunit) from EMD Millipore Sigma (cat. no. 14-602M and 14-792M, respectively). The enzyme stocks were diluted to 5× stocks in buffer (20 mM HEPES pH 7.4, 100 mM NaCl, 0.5 mM EGTA, 0.01% triton-x-100) just before use. PIP2diC8 (Avanti Polar Lipids Inc., cat. no. 850185) or phosphoinositol-4,5-bisphosphate with phosphoserine (PIP2:PS) membrane (Thermo Fisher Scientific, cat. no. PV5100) was used as lipid substrates. PIP2diC8 lyophilized powder and PIP2:PS (1:19) membrane stock (1 mM in PIP2) were separately dissolved in milliQ water to a concentration of 250 uM and stored in −20° C. 10 mM stocks of compounds were serially diluted (3×) in neat DMSO and stored in a dessicator at room temperature. 5× compound stocks in 25% DMSO were prepared fresh from neat DMSO stocks.
(§3) Wild-type (WT) and H1047R mutant protein, along with buffer components (except ATP), were incubated with or without compound at 27° C. for 1 h. After incubation, the reaction was initiated by the addition of 5 uL of 125 uM ATP. A typical assay mixture (25 uL) comprised 40 mM HEPES buffer, pH 7.4, 25 mM MgCl2, 0.01% v/v triton-X-100, 5% v/v DMSO, 20 mM NaCl, 1-5 nM wt or H1047R, 25 uM ATP, and 50 uM PIP2diC8 or PIP2 in membrane. The reaction was allowed to proceed until about […] (2.5 uM ADP) after which time, 10 uL of reaction mixture was quenched with 25 uL of transcreener reagent (Transcreener ADP2 FI assay kit, BellBrook labs, Cat. No. 3013). The contents were incubated at rt for 1 h and fluorescence was measured using a plate reader (Paradigm, Molecular Devices). The same assay was also run at pH 6.0 or 6.4 using MOPS buffer (Fisher BioReagents, CAS 1132-61-2). A calibration curve was generated under identical buffer conditions with varying ADP amounts. Using that, the observed fluorescence was converted to uM ADP. A plot between [ADP] and log[I] yielded the dose-response curves that enabled the calculation of IC50s.

[2] = target: human full length PIK3CA H1047R mutant (p110α/p85α) (Homo sapiens (Human), UniProt P42336, H1047R); experiment: PI3K-alpha kinase (PIK3CA) activity, H1047R mutant, Transcreener ADP2 FI assay; conditions: PI3K-α (PIK3CA) biochemical
Sequence of human full length PIK3CA H1047R mutant (p110α/p85α) (P42336 whole entry H1047R): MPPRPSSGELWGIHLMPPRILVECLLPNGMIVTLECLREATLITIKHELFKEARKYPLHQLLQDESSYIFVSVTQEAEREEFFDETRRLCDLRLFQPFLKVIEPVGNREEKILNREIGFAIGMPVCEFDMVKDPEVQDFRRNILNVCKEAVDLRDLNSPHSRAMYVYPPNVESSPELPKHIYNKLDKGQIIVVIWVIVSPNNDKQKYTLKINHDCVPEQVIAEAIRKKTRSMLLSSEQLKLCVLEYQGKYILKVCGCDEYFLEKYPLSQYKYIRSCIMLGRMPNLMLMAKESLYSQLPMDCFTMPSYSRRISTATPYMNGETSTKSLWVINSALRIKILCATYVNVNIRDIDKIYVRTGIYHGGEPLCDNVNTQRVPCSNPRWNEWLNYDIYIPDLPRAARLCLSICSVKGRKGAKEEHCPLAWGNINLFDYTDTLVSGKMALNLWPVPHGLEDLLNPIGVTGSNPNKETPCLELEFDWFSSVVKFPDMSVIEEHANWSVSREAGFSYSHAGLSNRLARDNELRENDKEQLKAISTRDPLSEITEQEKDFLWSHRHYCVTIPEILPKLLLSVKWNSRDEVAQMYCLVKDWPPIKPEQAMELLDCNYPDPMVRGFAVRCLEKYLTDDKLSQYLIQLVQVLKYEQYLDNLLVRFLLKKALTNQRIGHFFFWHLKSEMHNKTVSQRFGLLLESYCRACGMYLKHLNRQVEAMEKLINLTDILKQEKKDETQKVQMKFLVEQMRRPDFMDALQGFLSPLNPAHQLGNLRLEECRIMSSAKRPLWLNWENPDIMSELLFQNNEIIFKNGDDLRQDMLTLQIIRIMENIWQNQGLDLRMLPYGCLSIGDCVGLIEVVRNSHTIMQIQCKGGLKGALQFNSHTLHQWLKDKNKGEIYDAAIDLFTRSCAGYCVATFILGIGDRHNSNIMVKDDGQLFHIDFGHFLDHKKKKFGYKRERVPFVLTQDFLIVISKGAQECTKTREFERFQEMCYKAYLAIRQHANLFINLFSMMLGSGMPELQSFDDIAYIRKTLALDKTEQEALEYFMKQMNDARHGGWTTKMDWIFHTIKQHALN
Sequence of human full length PIK3CA H1047R mutant (p110α/p85α) (P27986 whole entry partner): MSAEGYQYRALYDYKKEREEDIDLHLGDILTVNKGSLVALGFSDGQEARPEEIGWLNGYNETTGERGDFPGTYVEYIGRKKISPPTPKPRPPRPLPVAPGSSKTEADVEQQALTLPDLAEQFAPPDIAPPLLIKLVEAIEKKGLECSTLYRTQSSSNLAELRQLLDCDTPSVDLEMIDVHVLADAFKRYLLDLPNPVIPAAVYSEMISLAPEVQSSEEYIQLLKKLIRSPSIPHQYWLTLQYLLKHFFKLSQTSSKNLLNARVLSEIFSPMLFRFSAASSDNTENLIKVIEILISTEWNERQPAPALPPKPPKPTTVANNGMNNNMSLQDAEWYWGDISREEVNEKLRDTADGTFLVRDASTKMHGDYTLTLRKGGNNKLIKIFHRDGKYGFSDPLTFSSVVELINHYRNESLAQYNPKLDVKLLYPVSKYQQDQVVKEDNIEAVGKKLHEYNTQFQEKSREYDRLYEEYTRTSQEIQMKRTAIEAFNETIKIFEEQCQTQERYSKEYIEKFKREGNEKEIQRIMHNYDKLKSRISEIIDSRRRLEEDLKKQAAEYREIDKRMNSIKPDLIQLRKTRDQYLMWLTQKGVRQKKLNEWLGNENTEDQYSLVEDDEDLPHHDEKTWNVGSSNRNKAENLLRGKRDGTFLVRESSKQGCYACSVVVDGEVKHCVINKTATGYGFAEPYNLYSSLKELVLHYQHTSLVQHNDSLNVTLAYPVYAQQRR
Description: as §1, §2, §3

Sequence of human full length PIK3CA wild-type (p110α/p85α) (P42336 whole entry): as the sequence (P42336 whole entry H1047R) above, with R1047H counted along it
Sequence of human full length PIK3CA wild-type (p110α/p85α) (P27986 whole entry partner): as the sequence (P27986 whole entry partner) above

Row | Structure (SMILES) | IC50 [1] | IC50 [2]
1 | Cc1cc(C(C)Nc2cc(F)ccc2[N+](=O)[O-])c2oc(N3CCC(C)(C)CC3)cc(=O)c2c1 (centres unmarked) [Example 8, 2-(4,4-Dimethyl-1-piperidyl)-8-[1-(5-fluoro-2-nitro-anilino)ethyl]-6-methyl-chromen-4-one] | > 10 µM | > 10 µM
2 | Cc1cc(C(C)Nc2cc3c(cc2C(=O)O)OCO3)c2oc(N3CCC(C)(C)CC3)cc(=O)c2c1 (centres unmarked) [Example 33, 6-[1-[2-(4,4-Dimethyl-1-piperidyl)-6-methyl-4-oxo-chromen-8-yl]ethylamino]-1,3-benzodioxole-5-carboxylic acid] | > 10 µM | > 10 µM
3 | Cc1cc(C(C)Nc2ccccc2C(=O)O)c2oc(N3CCC(C)CC3)cc(=O)c2c1 (centres unmarked) [Example 370, 2-[1-[6-Methyl-2-(4-methyl-1-piperidyl)-4-oxo-chromen-8-yl]ethylamino]benzoic acid] | > 10 µM | < 0.5 µM
4 | CC(Nc1ccc(Cl)nc1C(=O)O)c1cc(F)cc2c(=O)cc(N3Cc4ccccc4C3)oc12 (centres unmarked) [Example 400, 6-Chloro-3-[1-(6-fluoro-2-isoindolin-2-yl-4-oxo-chromen-8-yl)ethylamino]pyridine-2-carboxylic acid 2,2,2-trifluoroacetic acid] | < 0.5 µM | < 0.5 µM
5 | Cc1cc(C(C)N(C)c2ccccc2C(=O)O)c2oc(N3CCC(C)(C)CC3)cc(=O)c2c1 (centres unmarked) [Example 5, 2-[1-[2-(4,4-Dimethyl-1-piperidyl)-6-methyl-4-oxo-chromen-8-yl]ethyl-methyl-amino]benzoic acid] | > 10 µM | > 10 µM
6 | Cc1cc([C@@H](C)Nc2ccc(Cl)nc2C(=O)O)c2oc(N3CCC4(CC3)CC4)c(C)c(=O)c2c1 [Example 306, 3-[[(1R)-1-[2-(6-Azaspiro[2.5]octan-6-yl)-3,6-dimethyl-4-oxo-chromen-8-yl]ethyl]amino]-6-chloro-pyridine-2-carboxylic acid] | < 0.5 µM | < 0.5 µM
7 | Cc1cc(C(C)Nc2ccccc2C(=O)O)c2oc(N3CCCC4(CNC(=O)C4)C3)cc(=O)c2c1 (centres unmarked) [Example 61, 2-[1-[6-Methyl-4-oxo-2-(3-oxo-2,7-diazaspiro[4.5]decan-7-yl)chromen-8-yl]ethylamino]benzoic acid] | > 10 µM | –
8 | Cc1cc(C(C)Nc2ccccc2C(=O)O)c2oc(N3CCS(=O)(=O)CC3)cc(=O)c2c1 (centres unmarked) [Example 117, 2-[1-[2-(1,1-Dioxo-1,4-thiazinan-4-yl)-6-methyl-4-oxo-chromen-8-yl]ethylamino]benzoic acid] | > 10 µM | –
9 | COc1ccc(NC(C)c2cc(C)cc3c(=O)cc(N4Cc5ccccc5C4)oc23)c(C(=O)O)n1 (centres unmarked) [Example 237, 3-[1-(2-Isoindolin-2-yl-6-methyl-4-oxo-chromen-8-yl)ethylamino]-6-methoxy-pyridine-2-carboxylic acid] | > 10 µM | –
10 | Cc1cc(C(C)Nc2ccccc2C(=O)O)c2oc(NC34CC5CC(CC(CO)(C5)C3)C4)cc(=O)c2c1 (centres unmarked) [Example 169] | > 10 µM | –
11 | COc1cc(C(=O)O)c(NC(C)c2cc(C)cc3c(=O)cc(N4CCC(C)(C)CC4)oc23)cc1F (centres unmarked) [Example 1, 2-[1-[2-(4,4-Dimethyl-1-piperidyl)-6-methyl-4-oxo-chromen-8-yl]ethylamino]-4-fluoro-5-methoxy-benzoic acid] | > 10 µM | –
12 | Cc1cc(C(C)Nc2ccccc2C(=O)O)c2oc(N3CCC4(CC3)CN(C)C(=O)O4)cc(=O)c2c1 (centres unmarked) [Example 380, 2-[1-[6-Methyl-2-(3-methyl-2-oxo-1-oxa-3,8-diazaspiro[4.5]decan-8-yl)-4-oxo-chromen-8-yl]ethylamino]benzoic acid] | > 10 µM | –
13 | COC1CCN(c2cc(=O)c3cc(C)cc(C(C)Nc4ccccc4C(=O)O)c3o2)CC1 (centres unmarked) [Example 373, 2-[1-[2-(4-Methoxy-1-piperidyl)-6-methyl-4-oxo-chromen-8-yl]ethylamino]benzoic acid] | > 10 µM | –
14 | Cc1cc(C(C)Nc2ccsc2C(=O)O)c2oc(N3CCC(C)(C)CC3)cc(=O)c2c1 (centres unmarked) [Example 39, 3-[1-[2-(4,4-Dimethyl-1-piperidyl)-6-methyl-4-oxo-chromen-8-yl]ethylamino]thiophene-2-carboxylic acid] | > 10 µM | –
